# Reference: ChEMBL document CHEMBL6103561, “Chemical dissection of selective myeloid leukemia-1 inhibitors: How they were found and evolved” (Eur J Med Chem, 2025)
# Assays:
# [1] = molecular target: T1, Induced myeloid leukemia cell differentiation protein Mcl-1 (Homo sapiens, UniProt Q07820)
# Bcl-2-like protein 1 [2] = molecular target: T2, Bcl-2-like protein 1 (Homo sapiens, UniProt Q07817); assay: Binding affinity to Bcl-XL (unknown origin) assessed as inhibition constant by fluorescence polarization assay
# T2 sequence (Q07817 whole entry): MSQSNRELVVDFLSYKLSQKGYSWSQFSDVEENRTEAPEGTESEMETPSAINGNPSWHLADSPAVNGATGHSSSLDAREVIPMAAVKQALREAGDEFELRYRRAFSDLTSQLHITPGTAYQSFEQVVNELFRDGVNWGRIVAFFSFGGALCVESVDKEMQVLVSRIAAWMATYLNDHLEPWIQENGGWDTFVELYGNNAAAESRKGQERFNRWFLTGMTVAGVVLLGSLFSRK
# [3] = molecular target: T1, Induced myeloid leukemia cell differentiation protein Mcl-1; remark: listed apart in the source
# Description: Inhibition of N-terminal GST-tagged human MCL-1 (1 to 23 residues) extracted from Escherichia coli BL21 (DE3) by TR-FRET assay
# Bcl-2-like protein 1 [4] = molecular target: T2, Bcl-2-like protein 1
# [5] = molecular target: T1, Induced myeloid leukemia cell differentiation protein Mcl-1; remark: listed apart in the source
# Description: Binding affinity to MCL-1 (unknown origin) assessed as inhibition constant by TR-FRET assay
# [6] = molecular target: T3, Apoptosis regulator Bcl-2 (Homo sapiens, UniProt P10415); assay: Binding affinity to BCL-2 (unknown origin) assessed as inhibition constant incubated for 60 mins by TR-FRET assay
# T3 sequence (P10415 whole entry): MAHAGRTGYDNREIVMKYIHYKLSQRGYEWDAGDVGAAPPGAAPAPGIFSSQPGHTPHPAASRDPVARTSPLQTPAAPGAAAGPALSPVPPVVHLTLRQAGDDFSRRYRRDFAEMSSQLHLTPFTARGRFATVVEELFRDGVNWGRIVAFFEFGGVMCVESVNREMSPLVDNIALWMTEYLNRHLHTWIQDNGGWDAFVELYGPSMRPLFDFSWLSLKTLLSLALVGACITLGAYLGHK
# MV4-11 [7] = assay: Antiproliferative activity against human MV4-11 cells
# Bcl-2-like protein 1 [8] = molecular target: T2, Bcl-2-like protein 1; assay: Binding affinity to BCL-XL (unknown origin) assessed as inhibition constant incubated for 60 mins by TR-FRET assay
# NCI-H929 [9] = assay: Antiproliferative activity against human NCI-H929 cells assessed as reduction in cell viability
# OPM-2 = assay: Antiproliferative activity against human OPM-2 cells
# [10] = Solubility of compound in water at pH 7 measured after 24 hrs by HPLC analysis
# [11] = molecular target: T3, Apoptosis regulator Bcl-2
# Description: Binding affinity to BCL-2 (unknown origin) as assessed as inhibition constant
# [12] = molecular target: T1, Induced myeloid leukemia cell differentiation protein Mcl-1; remark: listed apart in the source
# Description: Binding affinity to MCL-1 (unknown origin) assessed as inhibition constant
# in vivo = conditions: mouse
# NCI-H929 [13] = assay: Growth inhibition of human NCI-H929 cells
# [14] = Clearance in mouse at 1 mg/kg, iv; conditions: in vivo
# [15] = molecular target: Voltage-gated inwardly rectifying potassium channel KCNH2 (Homo sapiens, UniProt Q12809)
# Sequence of Voltage-gated inwardly rectifying potassium channel KCNH2 (Q12809 whole entry): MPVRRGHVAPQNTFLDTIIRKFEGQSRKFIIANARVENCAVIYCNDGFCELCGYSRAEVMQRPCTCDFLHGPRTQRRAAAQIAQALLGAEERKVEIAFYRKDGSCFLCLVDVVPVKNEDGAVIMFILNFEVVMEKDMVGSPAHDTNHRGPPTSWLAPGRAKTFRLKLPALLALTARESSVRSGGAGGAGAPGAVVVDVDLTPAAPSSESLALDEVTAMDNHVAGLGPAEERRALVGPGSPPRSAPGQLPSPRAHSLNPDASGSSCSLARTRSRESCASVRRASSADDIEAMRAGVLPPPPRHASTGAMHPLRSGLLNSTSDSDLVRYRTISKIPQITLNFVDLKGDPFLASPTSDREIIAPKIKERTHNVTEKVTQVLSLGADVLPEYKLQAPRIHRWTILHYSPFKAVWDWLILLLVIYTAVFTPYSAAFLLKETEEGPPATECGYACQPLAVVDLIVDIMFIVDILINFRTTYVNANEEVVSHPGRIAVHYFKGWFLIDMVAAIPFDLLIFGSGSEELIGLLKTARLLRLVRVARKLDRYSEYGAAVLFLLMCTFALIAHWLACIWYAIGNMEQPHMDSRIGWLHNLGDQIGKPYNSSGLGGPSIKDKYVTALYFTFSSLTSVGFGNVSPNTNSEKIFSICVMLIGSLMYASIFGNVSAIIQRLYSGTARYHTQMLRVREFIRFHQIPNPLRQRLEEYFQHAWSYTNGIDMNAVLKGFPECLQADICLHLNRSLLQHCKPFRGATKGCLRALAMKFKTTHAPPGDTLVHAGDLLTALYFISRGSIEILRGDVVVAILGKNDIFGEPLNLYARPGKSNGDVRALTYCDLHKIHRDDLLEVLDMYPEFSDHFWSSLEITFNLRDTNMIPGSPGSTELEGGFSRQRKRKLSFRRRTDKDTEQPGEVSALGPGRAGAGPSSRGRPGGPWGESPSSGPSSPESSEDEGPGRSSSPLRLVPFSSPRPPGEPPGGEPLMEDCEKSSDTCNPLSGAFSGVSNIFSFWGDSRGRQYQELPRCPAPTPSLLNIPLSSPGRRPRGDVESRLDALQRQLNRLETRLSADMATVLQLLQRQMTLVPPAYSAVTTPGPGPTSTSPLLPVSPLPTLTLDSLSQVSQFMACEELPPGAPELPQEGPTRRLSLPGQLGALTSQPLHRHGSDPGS
# Bcl-2-like protein 1 [16] = molecular target: T2, Bcl-2-like protein 1; assay: Binding affinity to BCL-XL (unknown origin) assessed as inhibition constant
# [17] = molecular target: T1, Induced myeloid leukemia cell differentiation protein Mcl-1; remark: listed apart in the source
# HL-60 [18] = assay: Cytotoxicity against human HL-60 cells assessed as reduction in cell viability incubated for 48 hrs by CCK-8 assay; conditions: HL-60, 48 h
# [19] = molecular target: T1, Induced myeloid leukemia cell differentiation protein Mcl-1; assay: Binding affinity to N-terminal MCL-1 (unknown origin) using 5-FAM peptide as substrate by fluorescence polarization assay
# Bcl-2-like protein 1 [20] = molecular target: T2, Bcl-2-like protein 1; remark: listed apart in the source
# Description: Inhibition of Bcl-XL (unknown origin) by FRET assay
# [21] = molecular target: T1, Induced myeloid leukemia cell differentiation protein Mcl-1; remark: listed apart in the source
# Description: Inhibition of MCL-1 (unknown origin)
# [22] = Antiproliferative activity against human BL-2 cells; conditions: BL2
# [23] = molecular target: T1, Induced myeloid leukemia cell differentiation protein Mcl-1; remark: listed apart in the source
# Description: Binding affinity to MCL-1 (unknown origin) assessed as inhibition constant by fluorescence polarization assay
# HL-60 [24] = assay: Growth inhibition of human HL-60 cells
# MV4-11 [25] = assay: Antiproliferative activity against human MV4-11 cells assessed as reduction in cell viability
# [26] = molecular target: T3, Apoptosis regulator Bcl-2; remark: listed apart in the source
# Description: Inhibition of Bcl-2 (unknown origin) by fluorescence polarization assay
# MOLP-8 = assay: Antiproliferative activity against human MOLP8 cells
# T1 sequence (Q07820 whole entry): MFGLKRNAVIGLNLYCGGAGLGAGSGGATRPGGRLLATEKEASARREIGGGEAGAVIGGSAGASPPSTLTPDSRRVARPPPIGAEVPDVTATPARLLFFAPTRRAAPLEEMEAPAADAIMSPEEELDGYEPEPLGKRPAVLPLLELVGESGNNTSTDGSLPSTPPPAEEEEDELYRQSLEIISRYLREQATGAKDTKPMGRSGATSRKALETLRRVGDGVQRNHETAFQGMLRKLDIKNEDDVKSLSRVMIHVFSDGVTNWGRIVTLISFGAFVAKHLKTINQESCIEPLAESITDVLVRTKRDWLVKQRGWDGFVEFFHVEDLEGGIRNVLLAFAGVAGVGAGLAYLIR
compound,measurement,setting,value
Cc1ccc(S(=O)(=O)/N=C2/C=C(Sc3nc[nH]n3)C(=O)c3ccccc32)cc1,IC50,[1],14 nM
CC(C)c1ccccc1Cc1cc(C(=O)Nc2ccc(S(=O)(=O)c3ccccc3C(C)(C)C)cc2)c(O)c(O)c1O,Ki,Bcl-2-like protein 1 [2],290 nM
O=C(c1ccccc1O)c1[nH]c(Cl)c(Cl)c1-n1c(C(=O)c2ccccc2O)cc(Cl)c1Cl,IC50,[3],10100 nM
same,IC50,Bcl-2-like protein 1 [4],> 100000 nM
O=C(O)CSc1ccc(C(=O)c2[nH]c(Cl)c(Cl)c2-n2c(C(=O)c3ccc(SCC(=O)O)cc3O)cc(Cl)c2Cl)c(O)c1,IC50,Bcl-2-like protein 1 [4],> 100000 nM
O=C(O)Cn1cc(-c2cc(O)c(C(=O)c3[nH]c(Cl)c(Cl)c3-n3c(C(=O)c4cc(Cl)c(-c5cn(CC(=O)O)nn5)cc4O)cc(Cl)c3Cl)cc2Cl)nn1,IC50,Bcl-2-like protein 1 [4],> 50000 nM
Cc1nn(C)c(C)c1-c1cccc2c(CCCOc3cccc4ccccc34)c(C(=O)O)n(CCN3CCOCC3)c12,Ki,[5],1 nM
Cc1nn(C)c(COc2ccc(N3CCN(S(=O)(=O)N(C)C)CC3)cc2)c1-c1cccc2c(CCCOc3cccc4ccccc34)c(C(=O)O)n(CCN3CCOCC3)c12,Ki,[6],132 nM
same,EC50,MV4-11 [7],1860 nM
same,Ki,Bcl-2-like protein 1 [8],> 660 nM
CC(=O)N1CCN(c2ccc(OCc3nn(C)c(C)c3-c3cccc4c(CCCOc5cccc6ccccc56)c(C(=O)O)n(Cc5cccnc5)c34)cc2)CC1,Ki,[5],1 nM
Cc1c(-c2cccc3c(CCCOc4cccc5ccccc45)c(C(=O)O)n(C)c23)c(COc2ccc(B(O)O)c(C=O)c2)nn1C,IC50,[1],4200 nM
Cc1c(-c2c(-c3ccc(F)o3)sc3ncnc(O[C@H](Cc4ccccc4OCc4ccnn4CC(F)(F)F)C(=O)O)c23)ccc(OCCN2CCN(C)CC2)c1Cl,IC50,NCI-H929 [9],1 nM
COc1ccccc1-c1nccc(COc2ccccc2C[C@@H](Oc2ncnc3sc(-c4ccc(F)cc4)c(-c4ccc(OCCN5CCN(C)CC5)c(Cl)c4C)c23)C(=O)O)n1,IC50,NCI-H929 [9],1 nM
CO[C@H]1/C=C/C[C@H](C)[C@@H](C)S(=O)(=O)NC(=O)c2ccc3c(c2)N(C[C@@H]2CCO[C@H]21)C[C@@]1(CCCc2cc(Cl)ccc21)CO3,IC50,OPM-2,432 nM
same,solubility at 24 h,[10],< 0.1 µM
CO[C@H]1/C(F)=C/C[C@H](C)[C@@H](C)S(=O)(=O)NC(=O)c2ccc3c(c2)N(C[C@@H]2CCO[C@H]21)C[C@@]1(CCCc2cc(Cl)ccc21)CO3,IC50,OPM-2,191 nM
same,solubility at 24 h,[10],8.3 µM
CO[C@@H]1/C(F)=C/C[C@H](C)[C@@H](C)S(=O)(=O)NC(=O)c2ccc3c(c2)N(C[C@@H]2CCO[C@H]21)C[C@@]1(CCCc2cc(Cl)ccc21)CO3,IC50,OPM-2,1120 nM
same,solubility at 24 h,[10],11.2 µM
Cc1c(-c2cccc3c(CCCOc4cccc5ccccc45)c(C(=O)O)n(C)c23)c(COc2ccccc2)nn1C,IC50,[1],4200 nM
Cc1cc(OCCCn2cc(-c3cccc(C(F)(F)F)c3)c3cc(C(=O)O)ccc32)cc(C)c1Cl,Ki,[11],560 nM
same,Ki,[12],400 nM
Cc1cc(Cl)cc(C)c1OCCCc1c2n(c3c(-c4c(C)nn(C)c4C)c(Cl)ccc13)CCCN(c1cn(C)c3ccc(C(=O)O)cc13)C2=O,Ki,[5],< 0.1 nM
same,half-life,in vivo,34.2 min
same,GI50,NCI-H929 [13],300 nM
same,clearance,[14],245 mL/min/kg
C#Cc1ccc(OCc2nn(C)c(C)c2-c2cccc3c(CCCOc4cccc5ccccc45)c(C(=O)O)n(C)c23)cc1C=O,IC50,[1],4200 nM
CCOP(=O)(OCC)c1ccc(C(=O)c2[nH]c(Cl)c(Cl)c2-n2c(C(=O)c3ccc(P(=O)(OCC)OCC)cc3O)cc(Cl)c2Cl)c(O)c1,IC50,Bcl-2-like protein 1 [4],> 100000 nM
COCCOCc1nn(C)c2c1CSCc1cc(n(C)n1)CSc1cc(c3ccc(F)cc3c1)OCCCc1c(C(=O)O)n(CCN3CCOCC3)c3c-2c(Cl)ccc13,Ki,Bcl-2-like protein 1 [8],0.02 nM
same,IC50,[15],> 30000 nM
same,solubility at 24 h,[10],550 µM
Cc1c(-c2cccc3c(CCCOc4cccc5ccccc45)c(C(=O)O)n(C)c23)c(COc2ccc(S(=O)(=O)F)cc2)nn1C,IC50,[1],4200 nM
Cc1cc(Cl)cc(C)c1OCCCc1c2n(c3c(-c4c(C)nn(C)c4C)c(Cl)ccc13)[C@H](C)CCN(c1cn(C)c3ccc(C(=O)O)cc13)C2=O,Ki,[5],0.097 nM
same,GI50,NCI-H929 [13],190 nM
CC[C@@H]1CC/C=C/[C@H](O)[C@@H]2CC[C@H]2CN2C[C@@]3(CCc4cc(Cl)ccc43)COc3ccc(cc32)C(=O)NS1(=O)=O,IC50,[12],0.05 nM
COCCOCc1nn(C)c2c1CSCc1cc(n(C)n1)CSc1cc(c3ccc(F)cc3c1)OCCCc1c(C(=O)O)n(C)c3c-2c(Cl)ccc13,Ki,Bcl-2-like protein 1 [8],0.018 nM
same,IC50,[15],> 30000 nM
same,solubility at 24 h,[10],580 µM
COc1ccccc1-c1nccc(COc2ccc3cc2C[C@H](C(=O)O)Oc2ncnc4sc(-c5ccc(F)cc5)c(c24)-c2ccc(c(Cl)c2C)CN(CCN2CCN(C)CC2)CO3)n1,Ki,[11],> 1200 nM
same,Ki,Bcl-2-like protein 1 [16],> 660 nM
same,Ki,[12],5.54 nM
O=C(O)CCn1cc(-c2cccc(C(F)(F)F)c2)c2ccc(-c3ccccc3)cc21,Ki,[11],2380 nM
same,Ki,[12],410 nM
COCCOCn1nc(C)c2c1CSCc1cc(n(C)n1)CCc1cc(c3ccc(F)cc3c1)OCCCn1c(C(=O)O)c(C)c3c-2c(Cl)ccc31,Ki,Bcl-2-like protein 1 [8],0.015 nM
same,IC50,[15],> 30000 nM
same,solubility at 24 h,[10],3140 µM
CC(C)CN1C[C@@H](c2ccc(Cl)cc2Cl)Oc2ccc(C(=O)O)cc21,IC50,[17],55000 nM
COc1n[nH]cc1C(=O)NS1(=O)=NC(=O)c2ccc3c(c2)N(C[C@@H]2CCO[C@H]2[C@H](OC)/C(F)=C/C[C@H](C)C1)C[C@@]1(CCCc2cc(Cl)ccc21)CO3 (some centres not stated),IC50,OPM-2,44 nM
same,solubility at 24 h,[10],520 µM
Cc1ccc(Oc2ccc(O)c(O)c2)c(-c2ccsc2S(=O)(=O)NCCNC(=O)Nc2cc(C(F)(F)F)cc(C(F)(F)F)c2)c1,IC50,HL-60 [18],3700 nM
same,Ki,[19],490 nM
Cc1cc(S(=O)(=O)NC(=O)c2cc(C)c(-c3cccc4c(CCCOc5cccc6ccccc56)c(C(=O)O)nn34)c(C)c2)ccc1N[C@H](CCN(C)C)CSc1ccccc1,IC50,Bcl-2-like protein 1 [20],3 nM
same,IC50,[21],8 nM
CC1(C)CC[C@@H](OC(=O)/C=C/c2ccccc2)[C@]2(C)C(C=O)C(C=O)=C[C@H](O)[C@@]12C (some centres not stated),IC50,[22],4000 nM
same,Ki,[23],300 nM
same,IC50,[15],> 10000 nM
Cc1c(Cl)c2c(Cl)c(C)c1-c1c(-c3ccc(F)cc3)sc3ncnc(c13)O[C@@H](C(=O)O)Cc1cc(ccc1OCc1ccnc(-c3ccc(OC[C@H]4COCCO4)cc3)n1)OCC(CN1CCN(C)CC1)O2 (some centres not stated),Ki,[5],0.01 nM
same,IC50,NCI-H929 [9],40 nM
O=S(=O)(Nc1cc(Sc2ccco2)c(O)c2ccccc12)c1cccs1,Ki,[12],> 100000 nM
CC(=O)N1CCN(c2ccc(OCc3cccc(-c4ccc5c(-c6cccc(C(F)(F)F)c6)cn(CCC(=O)O)c5c4)c3)cc2)CC1,GI50,HL-60 [24],3150 nM
same,Ki,[12],370 nM
CO[C@@]1(CN2CCN3CCCC[C@@H]3C2)/C=C/C[C@H](C)[C@@H](C)S(=O)(=O)NC(=O)c2ccc3c(c2)N(C[C@@H]2CC[C@H]21)C[C@@]1(CCCc2cc(Cl)ccc21)CO3,IC50,OPM-2,50 nM
same,IC50,MV4-11 [25],150 nM
Cc1cc(OCCCn2ccc3cc(C(=O)O)ccc32)cc(C)c1Cl,Ki,[11],12900 nM
same,Ki,[12],8850 nM
Cc1cc2c(C(C)C)c(O)c(O)cc2c(O)c1-c1c(C)cc2c(C(C)C)c(O)c(O)cc2c1O [APOGOSSYPOL],IC50,[26],2800 nM
Cc1c2c(nn1C)CSCc1cc(n(C)n1)CSc1cc(c3ccccc3c1)OCCCc1c(C(=O)O)n(C)c3c-2c(Cl)ccc13 [AZD-5991],EC50,MOLP-8,> 16000 nM
COC1=CC(c2cc3ccccc3[nH]2)=N/C1=C\c1[nH]c(C)cc1C [OBATOCLAX],Ki,Bcl-2-like protein 1 [2],> 1000 nM
same,Ki,[11],200 nM
same,Ki,[12],> 1000 nM
CO[C@H]1/C=C/C[C@H](C)[C@@H](C)S(=O)(=O)NC(=O)c2ccc3c(c2)N(C[C@@H]2CC[C@H]21)C[C@@]1(CCCc2cc(Cl)ccc21)CO3 [TAPOTOCLAX],IC50,MV4-11 [25],150 nM
